Results as given in patent publication US20180272034A1, “USE OF CSA COMPOUNDS TO PREVENT MICROBIAL BUILD-UP OR FOULING OF MEDICAL IMPLANTS” (BRIGHAM YOUNG UNIVERSITY, priority 2017, published 2018).
≈ marks a conversion by molar mass, not a printed value.

Tests used:
[1] = system: Staphylococcus aureus; conditions: mixed-species biofilms grown 22 hours, 20 hours of treatment
Protocol: (§1) Several CSA compounds were tested against Pseudomonas aeruginosa and Staphylococcus aureus mixed-species biofilms grown for an initial 22 hours and subjected to 20 hours of treatment.

[2] = system: Pseudomonas aeruginosa; conditions: mixed-species biofilms grown 22 hours, 20 hours of treatment
Protocol: as §1

[3] = system: Pseudomonas aeruginosa (PA01); assay: Coated endotracheal tube segments, daily re-inoculation, growth in medium; format: cell-based; parameters: key to bacterial growth in medium, Day 1 / bacterial growth in medium, Day 2 / bacterial growth in medium, Day 3 / bacterial growth in medium, Day 4 / bacterial growth in medium, Day 5 / bacterial growth in medium, Day 6 / bacterial growth in medium, Day 7 / bacterial growth in medium, Day 10 / bacterial growth in medium, Day 8 / bacterial growth in medium, Day 9: N=no growth; G=growth; conditions: hydrogel coating 10% CSA-131 HCl, 3% citric acid, PA01 re-inoculated every 24 h
Protocol: A hydrogel coating containing 10% CSA-131 HCl and 3% citric acid, relative to the hydrogel solids, was tested for antibacterial efficacy using endotracheal tube segments (5.0 mm). These tube segments (surface area of ca. 1.5 cm^2) were dip coated and cured to give coatings of approximately 10 microns. Coated tube segments were washed in phosphate buffered saline (PBS) for varied amounts of time before testing. Antibacterial testing involved immersing tube segments in 10% TSB in PBS (1.0 mL) and inoculating with Pseudomonas aeruginosa (PA01)@10^6 colony forming units (CFU). Samples were incubated for 24 h, and bacterial growth in the medium was assayed visually (i.e., turbidity in the medium is caused by unrestricted bacterial growth). […] And the converse is true: if growth is supported in the medium that the device is colonized, to some extent.
After 24 h of incubation, tube segments were immersed in fresh growth media (10% TSB in PBS, 1 mL), re-inoculated, and incubated. […] Experiments were performed in triplicate. N=no growth, G=growth.
Antibacterial activity of a hydrogel coating (ca. 10 microns) containing CSA-131 2-NDSA (10% by weight relative to hydrogel solids) was determined as described in Example 8 using methicillin-resistant Staphylococcus aureus (MRSA) and Pseudomonas aeruginosa (PA01).

[4] = Hydrogel coating stability and reaction with ethylene oxide (ETO)
Protocol: Releases of CSA-131 from hydrogel-based coatings were investigated, including examining coating stability and reaction of the coating with ethylene oxide (ETO) during sterilization processes. […] To mask this reactivity, coatings were prepared including varies percentages of citric acid to form non-volatile salts of the CSA compound.
Using a jet mill (Fluid Energy), CSA-131 2-NDSA was milled to an average particle size of 200 nm.

CC(O)C1CCC2C3C(OCCCN)CC4CC(OCCCN)CCC4(C)C3CC(OCCCN)C12C.Cl.Cl.Cl (mixture of isomers) [CSA-11]
MBC S. aureus [1]: 50 µg/mL
MIC S. aureus [1]: 50 µg/mL
MBC P. aeruginosa [2]: >200 µg/mL
MIC P. aeruginosa [2]: >200 µg/mL

CCCCCCCCNCCC[C@@H](C)[C@H]1CC[C@H]2[C@@H]3[C@H](OCCCN)C[C@@H]4C[C@H](OCCCN)CC[C@]4(C)[C@H]3C[C@H](OCCCN)[C@]12C [CSA-13]
MBC S. aureus [1]: 0.78 µg/mL (≈ 1.15 µM)
MIC S. aureus [1]: 0.78 µg/mL (≈ 1.15 µM)
MBC P. aeruginosa [2]: 6.25 µg/mL (≈ 9.23 µM)
MIC P. aeruginosa [2]: 3.125 µg/mL (≈ 4.62 µM)

CC(CCCOCCCN)C1CCC2C3C(OCCCN)CC4CC(OCCCN)CCC4(C)C3CC(OCCCN)C12C.Cl.Cl.Cl.Cl (stereo not drawn) [CSA-25]
MBC S. aureus [1]: 3.25 µg/mL
MIC S. aureus [1]: 1.56 µg/mL
MBC P. aeruginosa [2]: 50 µg/mL
MIC P. aeruginosa [2]: 25 µg/mL

CCCCCCCCOC(=O)CC[C@@H](C)[C@H]1CC[C@H]2[C@@H]3[C@H](OC(=O)CCN)C[C@@H]4C[C@H](OC(=O)CCN)CC[C@]4(C)[C@H]3C[C@H](OC(=O)CCN)[C@]12C [CSA-44]
MBC S. aureus [1]: 3.25 µg/mL (≈ 4.43 µM)
MIC S. aureus [1]: 1.56 µg/mL (≈ 2.13 µM)
MBC P. aeruginosa [2]: 6.25 µg/mL (≈ 8.51 µM)
MIC P. aeruginosa [2]: 3.125 µg/mL (≈ 4.26 µM)

C[C@H](CCCNCCCNCCCN)[C@H]1CC[C@H]2[C@@H]3[C@H](OCCCN)C[C@@H]4C[C@H](OCCCN)CC[C@]4(C)[C@H]3C[C@H](OCCCN)[C@]12C.Cl.Cl.Cl.Cl.Cl.Cl [CSA-54]
MBC S. aureus [1]: 25 µg/mL
MIC S. aureus [1]: 6.25 µg/mL
MBC P. aeruginosa [2]: 100 µg/mL
MIC P. aeruginosa [2]: 50 µg/mL

CCCCCN(CCCCC)CCC[C@@H](C)[C@H]1CC[C@H]2[C@@H]3[C@H](OCCCN)C[C@@H]4C[C@H](OCCCN)CC[C@]4(C)[C@H]3C[C@H](OCCCN)[C@]12C [CSA-90]
MBC S. aureus [1]: 1.56 µg/mL (≈ 2.21 µM)
MIC S. aureus [1]: 1.56 µg/mL (≈ 2.21 µM)
MBC P. aeruginosa [2]: 6.25 µg/mL (≈ 8.86 µM)
MIC P. aeruginosa [2]: 6.25 µg/mL (≈ 8.86 µM)

CCCCCCCCCCCCNCCC[C@@H](C)[C@H]1CC[C@H]2[C@@H]3[C@H](OCCCN)C[C@@H]4C[C@H](OCCCN)CC[C@]4(C)[C@H]3C[C@H](OCCCN)[C@]12C.Cl.Cl.Cl.Cl [CSA-131 HCl]
bacterial growth in medium, Day 1 ([3]; Unwashed): N
bacterial growth in medium, Day 2 ([3]; Unwashed): N
bacterial growth in medium, Day 3 ([3]; Unwashed): N
bacterial growth in medium, Day 4 ([3]; Unwashed): N
bacterial growth in medium, Day 5 ([3]; Unwashed): G
bacterial growth in medium, Day 6 ([3]; Unwashed): G
bacterial growth in medium, Day 7 ([3]; Unwashed): G
bacterial growth in medium, Day 1 ([3]; Wash Time 15 min in PBS): N
bacterial growth in medium, Day 2 ([3]; Wash Time 15 min in PBS): N
bacterial growth in medium, Day 3 ([3]; Wash Time 15 min in PBS): N
bacterial growth in medium, Day 4 ([3]; Wash Time 15 min in PBS): N
bacterial growth in medium, Day 5 ([3]; Wash Time 15 min in PBS): G
bacterial growth in medium, Day 6 ([3]; Wash Time 15 min in PBS): G
bacterial growth in medium, Day 7 ([3]; Wash Time 15 min in PBS): G
bacterial growth in medium, Day 1 ([3]; Wash Time 30 min in PBS): N
bacterial growth in medium, Day 2 ([3]; Wash Time 30 min in PBS): N
bacterial growth in medium, Day 3 ([3]; Wash Time 30 min in PBS): N
bacterial growth in medium, Day 4 ([3]; Wash Time 30 min in PBS): N
bacterial growth in medium, Day 5 ([3]; Wash Time 30 min in PBS): G
bacterial growth in medium, Day 6 ([3]; Wash Time 30 min in PBS): G
bacterial growth in medium, Day 7 ([3]; Wash Time 30 min in PBS): G
bacterial growth in medium, Day 1 ([3]; Wash Time 1 hour in PBS): N
bacterial growth in medium, Day 2 ([3]; Wash Time 1 hour in PBS): N
bacterial growth in medium, Day 3 ([3]; Wash Time 1 hour in PBS): N
bacterial growth in medium, Day 4 ([3]; Wash Time 1 hour in PBS): N
bacterial growth in medium, Day 5 ([3]; Wash Time 1 hour in PBS): G
bacterial growth in medium, Day 6 ([3]; Wash Time 1 hour in PBS): G
bacterial growth in medium, Day 7 ([3]; Wash Time 1 hour in PBS): G
mechanical integrity of coating on silicone tube segments ([4]; CSA-131 HCl 10% relative to coating solids, prolonged soaking in buffer): some flaking of the coating
ETO adduct formation ([4]; hydrogel coating with at least 3% (by weight relative to hydrogel solids) citric acid): eliminated
reaction with ETO during sterilization ([4]; tube segments coated with hydrogel containing CSA-131 HCl (10%)): substantial reaction, leading to ETO adducts

CCCCCCOC(=O)CCC(C)C1CCC2C3C(OC(=O)CCN)CC4CC(OC(=O)CCN)CCC4(C)C3CC(OC(=O)CCN)C12C.Cl.Cl.Cl (stereo not drawn) [CSA-142]
MBC S. aureus [1]: 3.125 µg/mL
MIC S. aureus [1]: 3.125 µg/mL
MBC P. aeruginosa [2]: 3.125 µg/mL
MIC P. aeruginosa [2]: 3.125 µg/mL

CCCCCCCCCCOC(=O)CCC(C)C1CCC2C3C(OC(=O)CCN)CC4CC(OC(=O)CCN)CCC4(C)C3CC(OC(=O)CCN)C12C.Cl.Cl.Cl (stereo not drawn) [CSA-144]
MBC S. aureus [1]: 3.125 µg/mL
MIC S. aureus [1]: 3.125 µg/mL
MBC P. aeruginosa [2]: 50 µg/mL
MIC P. aeruginosa [2]: 12.5 µg/mL

CCCCCCCCCOC(=O)CCC(C)C1CCC2C3C(OC(=O)CCN)CC4CC(OC(=O)CCN)CCC4(C)C3CC(OC(=O)CCN)C12C.Cl.Cl.Cl (stereo not drawn) [CSA-145]
MBC S. aureus [1]: 3.125 µg/mL
MIC S. aureus [1]: 3.125 µg/mL
MBC P. aeruginosa [2]: 50 µg/mL
MIC P. aeruginosa [2]: 12.5 µg/mL

CCCCCCCCNC(=O)CCC(C)C1CCC2C3C(OCCCN)CC4CC(OCCCN)CCC4(C)C3CC(OCCCN)C12C.Cl.Cl.Cl (stereo not drawn) [CSA-192]
MBC S. aureus [1]: 1.56 µg/mL
MIC S. aureus [1]: 0.78 µg/mL
MBC P. aeruginosa [2]: 6.25 µg/mL
MIC P. aeruginosa [2]: 3.125 µg/mL

CC[C@H](C)[C@H](NC(=O)[C@H](CCCCN)NC(=O)[C@H](CCC(=O)O)NC(=O)[C@H](CCCCN)NC(=O)[C@H](CO)NC(=O)[C@H](CCCCN)NC(=O)[C@H](CCCNC(=N)N)NC(=O)[C@H](Cc1ccccc1)NC(=O)[C@H](Cc1ccccc1)NC(=O)[C@H](CC(=O)O)NC(=O)CNC(=O)[C@H](CC(C)C)NC(=O)[C@@H](N)CC(C)C)C(=O)NCC(=O)N[C@@H](CCCCN)C(=O)N[C@@H](CCC(=O)O)C(=O)N[C@@H](Cc1ccccc1)C(=O)N[C@@H](CCCCN)C(=O)N[C@@H](CCCNC(=N)N)C(=O)N[C@H](C(=O)N[C@H](C(=O)N[C@@H](CCC(N)=O)C(=O)N[C@@H](CCCNC(=N)N)C(=O)N[C@H](C(=O)N[C@@H](CCCCN)C(=O)N[C@@H](CC(=O)O)C(=O)N[C@@H](Cc1ccccc1)C(=O)N[C@@H](CC(C)C)C(=O)N[C@@H](CCCNC(=N)N)C(=O)N[C@@H](CC(N)=O)C(=O)N[C@@H](CC(C)C)C(=O)N[C@H](C(=O)N1CCC[C@H]1C(=O)N[C@@H](CCCNC(=N)N)C(=O)N[C@H](C(=O)N[C@@H](CCC(=O)O)C(=O)N[C@@H](CO)C(=O)O)[C@@H](C)O)C(C)C)[C@@H](C)CC)C(C)C)[C@@H](C)CC [LL-37, reference compound]
MBC S. aureus [1]: >200 µg/mL
MIC S. aureus [1]: >200 µg/mL
MBC P. aeruginosa [2]: >200 µg/mL
MIC P. aeruginosa [2]: >200 µg/mL
